For experiment [1], the target named is T1, ApK (A. phagocytophilum DnaK) (Anaplasma phagocytophilum, UniProt Q2GKZ8).
T1 sequence (Q2GKZ8 1-645): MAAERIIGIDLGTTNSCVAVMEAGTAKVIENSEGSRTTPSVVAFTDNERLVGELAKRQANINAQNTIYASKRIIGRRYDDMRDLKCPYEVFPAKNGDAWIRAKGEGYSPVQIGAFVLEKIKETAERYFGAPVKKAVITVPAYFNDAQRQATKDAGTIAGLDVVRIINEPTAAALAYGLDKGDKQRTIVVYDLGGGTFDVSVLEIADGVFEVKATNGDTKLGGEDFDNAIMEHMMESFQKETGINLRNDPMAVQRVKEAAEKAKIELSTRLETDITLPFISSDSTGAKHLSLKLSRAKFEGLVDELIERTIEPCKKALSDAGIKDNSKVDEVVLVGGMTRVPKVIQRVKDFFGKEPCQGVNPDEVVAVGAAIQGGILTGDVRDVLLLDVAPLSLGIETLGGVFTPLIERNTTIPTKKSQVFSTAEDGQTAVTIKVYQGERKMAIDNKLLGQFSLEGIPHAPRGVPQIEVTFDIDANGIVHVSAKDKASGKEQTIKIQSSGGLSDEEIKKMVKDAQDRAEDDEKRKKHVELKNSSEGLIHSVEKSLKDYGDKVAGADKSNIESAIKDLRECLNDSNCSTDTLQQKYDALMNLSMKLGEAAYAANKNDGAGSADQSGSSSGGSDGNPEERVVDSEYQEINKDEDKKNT
Description: fluorescence anisotropy of FITC-labeled peptide B2 (nucleotide effect on peptide binding). As to conditions: 2 mM ADP; indirect read-out through labelled peptide B2. For orientation: In fluorescence polarisation assays a small probe gives low polarisation when free and higher when bound to something large.

Another experiment deals with EcK (E. coli DnaK) (Escherichia coli, UniProt P0A6Y8). As to conditions: 5 mM ATP, 20 mM MgCl2, pH 7.4, 37 °C; basal (no casein or poly-lysine).
Chain of EcK (E. coli DnaK) (P0A6Y8 2-638): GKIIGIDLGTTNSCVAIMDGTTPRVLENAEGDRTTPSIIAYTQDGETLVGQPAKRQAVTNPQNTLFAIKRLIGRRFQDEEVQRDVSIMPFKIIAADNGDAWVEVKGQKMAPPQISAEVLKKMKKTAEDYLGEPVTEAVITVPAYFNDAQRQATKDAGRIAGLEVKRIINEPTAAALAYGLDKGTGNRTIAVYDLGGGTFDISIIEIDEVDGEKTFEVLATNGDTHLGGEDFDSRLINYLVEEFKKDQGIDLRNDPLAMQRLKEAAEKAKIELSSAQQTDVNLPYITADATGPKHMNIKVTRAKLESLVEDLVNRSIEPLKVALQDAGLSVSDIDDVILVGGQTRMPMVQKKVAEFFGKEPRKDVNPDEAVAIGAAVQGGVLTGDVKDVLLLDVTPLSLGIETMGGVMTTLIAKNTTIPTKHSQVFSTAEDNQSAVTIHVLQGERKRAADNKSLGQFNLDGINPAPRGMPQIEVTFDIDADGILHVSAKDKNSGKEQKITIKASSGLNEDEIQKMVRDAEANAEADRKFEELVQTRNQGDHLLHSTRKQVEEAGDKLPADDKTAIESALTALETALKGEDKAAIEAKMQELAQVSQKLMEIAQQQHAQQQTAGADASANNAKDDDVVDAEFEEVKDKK
Experiment [2] concerns the target T1, ApK (A. phagocytophilum DnaK). Description: malachite green phosphate release (ATPase). In kind it is biochemical. As to conditions: 5 mM ATP, 20 mM MgCl2, pH 7.4, 37 °C; basal (no casein or poly-lysine).
The target of experiment [3] is T2, ApB (A. phagocytophilum ClpB) (Anaplasma phagocytophilum, UniProt Q2GL99).
T2 sequence (Q2GL99 1-859): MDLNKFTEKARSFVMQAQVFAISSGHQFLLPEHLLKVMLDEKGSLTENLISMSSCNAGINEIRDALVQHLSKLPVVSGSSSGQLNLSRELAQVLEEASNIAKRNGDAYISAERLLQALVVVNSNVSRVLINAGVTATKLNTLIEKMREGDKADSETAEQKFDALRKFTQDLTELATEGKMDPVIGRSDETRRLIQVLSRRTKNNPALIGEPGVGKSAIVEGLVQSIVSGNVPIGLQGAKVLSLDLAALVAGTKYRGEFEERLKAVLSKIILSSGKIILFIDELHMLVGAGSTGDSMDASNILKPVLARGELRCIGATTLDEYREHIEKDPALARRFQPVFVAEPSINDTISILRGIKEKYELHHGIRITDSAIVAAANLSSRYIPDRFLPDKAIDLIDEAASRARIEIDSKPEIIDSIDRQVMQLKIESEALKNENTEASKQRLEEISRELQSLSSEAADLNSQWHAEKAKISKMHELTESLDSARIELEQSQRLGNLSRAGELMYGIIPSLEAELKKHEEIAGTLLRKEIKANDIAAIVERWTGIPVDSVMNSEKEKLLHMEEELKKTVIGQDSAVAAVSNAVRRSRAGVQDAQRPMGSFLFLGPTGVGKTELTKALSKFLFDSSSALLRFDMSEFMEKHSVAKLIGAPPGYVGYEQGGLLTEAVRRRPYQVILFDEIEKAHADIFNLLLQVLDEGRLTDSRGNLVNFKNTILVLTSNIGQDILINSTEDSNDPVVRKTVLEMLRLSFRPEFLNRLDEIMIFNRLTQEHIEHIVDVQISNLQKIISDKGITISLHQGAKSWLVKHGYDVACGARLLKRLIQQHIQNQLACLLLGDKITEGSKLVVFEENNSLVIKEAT
The settings on record: 5 mM ATP, 20 mM MgCl2, pH 7.4, 37 °C; basal (no casein or poly-lysine).

The target of the next experiment is EcB (E. coli ClpB) (Escherichia coli, UniProt P63284). Description: malachite green phosphate release (ATPase). Type of experiment: biochemical. The settings on record: 5 mM ATP, 20 mM MgCl2, pH 7.4, 37 °C; basal (no casein or poly-lysine).
Chain of EcB (E. coli ClpB) (P63284 whole entry): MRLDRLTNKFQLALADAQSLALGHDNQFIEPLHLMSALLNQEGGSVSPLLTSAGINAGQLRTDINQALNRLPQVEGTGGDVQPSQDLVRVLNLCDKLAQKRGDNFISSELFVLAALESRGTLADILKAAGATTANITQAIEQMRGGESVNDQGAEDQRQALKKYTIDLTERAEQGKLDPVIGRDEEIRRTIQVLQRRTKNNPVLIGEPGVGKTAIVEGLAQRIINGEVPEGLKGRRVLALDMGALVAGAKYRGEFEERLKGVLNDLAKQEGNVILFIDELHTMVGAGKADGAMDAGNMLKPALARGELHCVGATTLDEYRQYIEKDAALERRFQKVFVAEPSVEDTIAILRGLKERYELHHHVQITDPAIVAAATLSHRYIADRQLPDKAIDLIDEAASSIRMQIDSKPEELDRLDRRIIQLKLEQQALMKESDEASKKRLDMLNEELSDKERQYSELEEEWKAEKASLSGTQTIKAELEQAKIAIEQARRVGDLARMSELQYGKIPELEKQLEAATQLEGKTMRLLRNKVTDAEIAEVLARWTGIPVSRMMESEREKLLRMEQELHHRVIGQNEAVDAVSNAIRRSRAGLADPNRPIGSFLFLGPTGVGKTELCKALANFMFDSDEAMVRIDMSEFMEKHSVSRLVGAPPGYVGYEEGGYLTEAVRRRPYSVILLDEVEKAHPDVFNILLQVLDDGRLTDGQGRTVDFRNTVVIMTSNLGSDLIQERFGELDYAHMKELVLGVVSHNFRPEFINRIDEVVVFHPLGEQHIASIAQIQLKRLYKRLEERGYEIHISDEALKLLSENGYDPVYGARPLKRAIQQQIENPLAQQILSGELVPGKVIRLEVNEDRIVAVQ

Consider `Nc1ncnc2c1ncn2[C@@H]1O[C@H](COP(=O)(O)OP(=O)(O)O)[C@@H](O)[C@H]1O` [ADP], for which, in experiment [1], the “fluorescence anisotropy of FITC-labeled peptide B2 (nucleotide effect on peptide)” value is given as “ADP induced a strong binding of B2 to ApK”.
`Nc1ncnc2c1ncn2[C@@H]1O[C@H](COP(=O)(O)OP(=O)(O)OP(=O)(O)O)[C@@H](O)[C@H]1O` [ATP]: the ATPase activity entry at EcK (E. coli DnaK) is on record as “The basal ATPase activity of ApK was lower than that of EcK”; in experiment [2], “The basal ATPase activity of ApK was lower than that of EcK”; in experiment [3], “the basal ATPase activity of ApB exceeded that of EcB”; on EcB (E. coli ClpB), “the basal ATPase activity of ApB exceeded that of EcB”.
